This is an account of results in patent EP0075141A1, “1,2,5-Oxadiazole-3,4-dicarboxylic-acid derivatives, process for their production, their use and pharmaceutical preparations containing them” (CASSELLA Aktiengesellschaft, priority 1981, dated 1983).

The assay relates to Bastardhunden. The experiment in a line: Haemodynamic study of antianginal and antihypertensive action in anaesthetised mongrel dogs. The class given is in vivo. The following applies: dogs under pentobarbital or urethane-chloralose anaesthesia. How it is done:
Die Untersuchungen über die antianginöse und antihypertensive Wirkung der Verbindungen der Formel I wurden an Bastardhunden beiderlei Geschlechts in Pentobarbital-Narkose (30 bis 40 mg/ kg i.v.) oder in Urethan-Chloralose-Narkose (3 ml/kg Urethan-Chloralose-Gemisch i.v. = 20 mg/kg Chloralose und 250 mg/kg Urethan) durchgeführt. Die Beatmung der Tiere erfolgte mit einem Bird-Mark-7-Respirator. Der endexpiratorische Kohlensäuregehalt (gemessen mit einem Ultrarotabsorptionsschreiber) betrug zwischen 4,5 und 5 Vol.%. Während des gesamten Versuchs erhielten die Tiere mit Pentobarbital-Narkose eine Dauerinfusion von Pentobarbital i.v. = 4 mg(in 6 ml)/kg/h, um eine konstante Narkosetiefe zu gewährleisten; die Tiere mit Urethan-Chloralose-Narkose erhielten keine Dauerinfusion. Die Infusion wurde durch die Vena cephalica gegeben. Nach der Präparation des Versuchstieres wurde ca. 1 Stunde gewartet, bis sich alle haemodynamischen Parameter eingestellt hatten (steady state). Danach wurde mit dem eigentlichen Versuch begonnen.
Zur Bestimmung des mittleren Blutdrucks (=BDm) wurde der systolische und diastolische Blutdruck peripher in der Arteria femora1is über einen Statham-Druckaufnehmer gemessen. Ein über die Arteria carotis in den linken Ventrikel geschobener Millartip-Katheter lieferte das Signal für den linksventrikulären enddiastolischen Druck (=LVEDP) und die Herzfrequenz (=HF). Mit einem zweiten, über die Venajugularis eingeschobenen Tip-Katheter wurde der mittlere Blutdruck (=PAP) in der Arteria pulmonalis erfaßt.

Take `CCCNC(=O)c1nonc1C(=O)NCCC` [CH3CH2CH2NH- / CH3CH2CH2NH-, 1,2,5-Oxadiazol-3,4-bis-(carbonsäurepropylamid)]: where the note is “Dosis 1 mg/kg”, the “BDm Δ (mittlerer peripherer Blutdruck)” value was -35 mmHg, the “HF Δ (Herzfrequenz)” value was found to be 0 b/min, the “LVEDP Δ (linksventrikulärer enddiastolischer Druck)” value (“LVEDP Δ” below) is -0,5 mmHg and the “PAP Δ (mittlerer Pulmonalarteriendruck)” value is recorded as “+1,1 mmHg”.

Take `CNC(=O)c1nonc1C(=O)NC` [H2CNH- / H3CNH-, l,2,5-0xadiazol-3,4-bis-(carbonsäuremethylamid)]: where the note is “Dosis 0,5 mg/kg”, the “BDm Δ (mittlerer peripherer Blutdruck)” value is recorded as -35 mmHg, the “HF Δ (Herzfrequenz)” value is reported as “+20 b/min”, the “LVEDP Δ” value was -3,5 mmHg and the “PAP Δ (mittlerer Pulmonalarteriendruck)” value is -3,0 mmHg.

Turning to `CCOC(=O)c1nonc1C(=O)NC(C)C` [H5C2O- / [drawing] (r5)], where the note is “Dosis 3 mg/kg”, the “BDm Δ (mittlerer peripherer Blutdruck)” value is recorded as -35 mmHg, the “LVEDP Δ” value is -2,5 mmHg and the “PAP Δ (mittlerer Pulmonalarteriendruck)” value was -2,0 mmHg.

Consider `CCOC(=O)c1nonc1C(=O)NCCCN1CCN(c2ccccc2OC)CC1` [H5C2O- / [drawing] (r7)], for which, for the setting “Dosis 1 mg/kg”, the “BDm Δ (mittlerer peripherer Blutdruck)” value was -30 mmHg, the “LVEDP Δ” value is -2,5 mmHg and the “PAP Δ (mittlerer Pulmonalarteriendruck)” value is -1 mmHg.

Consider `O=C(NCCO)c1nonc1C(=O)NCCO` [HOCH2CH2NH- / HOCH2CH2NH-, 1,2,5-Oxadiazol-3,4-bis-(carbonsäure-ethanolamid)], for which, under “Dosis 1 mg/kg”, the “BDm Δ (mittlerer peripherer Blutdruck)” value is on record as -30 mmHg, the “HF Δ (Herzfrequenz)” value stood at 0 b/min, the “LVEDP Δ” value is -1 mmHg and the “PAP Δ (mittlerer Pulmonalarteriendruck)” value is listed as -2,0 mmHg.

Regarding `O=C(NCc1cccnc1)c1nonc1C(=O)NCc1cccnc1` [[drawing] / [drawing] (r2)], where the note is “Dosis 3 mg/kg”, the “BDm Δ (mittlerer peripherer Blutdruck)” value is reported as -45 mmHg, the “LVEDP Δ” value is on record as -8,5 mmHg and the “PAP Δ (mittlerer Pulmonalarteriendruck)” value is reported as -2,4 mmHg.

On to `O=C(NC1CCCCC1)c1nonc1C(=O)NC1CCCCC1` [[drawing] / [drawing] (r3)], for which, under “Dosis 1 mg/kg”, the “BDm Δ (mittlerer peripherer Blutdruck)” value was -55 mmHg, the “HF Δ (Herzfrequenz)” value was “+15 b/min”, the “LVEDP Δ” value is given as -10 mmHg and the “PAP Δ (mittlerer Pulmonalarteriendruck)” value is given as -2,7 mmHg.
